Measured values taken from BindingDB's records for doi:10.1021/ml400370w (The Scripps Research Institute, 2014).

Assay: Antagonist activity against CCR5 receptor in human TZM-bl cells assessed as inhibition of HIV-1 JR-FL-induced cell-cell fusion between viral envelope protein expressing human HEK293 cells to TZM-bl cells after 48 hrs by luciferase reporter gene assay

IC50 [nM] | Structure (SMILES)
3 | Cc1nnc(CCCCCCCCCCn2cc(COCCOCCOCCOCCOCc3ccc(C(=O)NCCCNC(=O)OC(C)(C)C)cc3)nn2)n1C1CC2CCC(C1)N2CC[C@H](NC(=O)C1CCC(F)(F)CC1)c1ccccc1 (stereo partly specified)
0.96 | Cc1nnc(CCCCCCCCCCN=[N+]=[N-])n1C1CC2CCC(C1)N2CC[C@H](NC(=O)C1CCC(F)(F)CC1)c1ccccc1 (stereo partly specified)
2.6 | Cc1nnc(CCCCCCCCCCn2cc(COCCOCCOCCOCCOCc3ccc(C(=O)N4CCC4=O)cc3)nn2)n1C1CC2CCC(C1)N2CC[C@H](NC(=O)C1CCC(F)(F)CC1)c1ccccc1 (stereo partly specified)

Further lines, the compound ahead of its results:

Structure (SMILES) | IC50 [nM]
Cc1nnc(C(C)C)n1C1CC2CCC(C1)N2CC[C@H](NC(=O)COCCOCCOCCN=[N+]=[N-])c1ccccc1 (stereo partly specified) | > 1000
Cc1nnc(C(C)C)n1C1CC2CCC(C1)N2CC[C@H](NC(=O)CCCCCCCCCCN=[N+]=[N-])c1ccccc1 (stereo partly specified) | 360
Cc1nnc(C(C)C)n1C1CC2CCC(C1)N2CC[C@H](NC(=O)CCCCCCCCCCn1cc(COCCOCCOCCOCCOCc2ccc(C(=O)N3CCC3=O)cc2)nn1)c1ccccc1 (stereo partly specified) | 27
